Data published in the supplement of paper PMC10307832.

Key:
Assay in all cases: relative viability (nuclei count vs DMSO), 5 days (fraction); higher = more cells survive
DM3189 + Luminespib = compound: C1CN(CCN1)C2=CC=C(C=C2)C3=CN4C(=C(C=N4)C5=CC=NC6=CC=CC=C56)N=C3 [DM3189] + CCNC(=O)c1noc(-c2cc(C(C)C)c(O)cc2O)c1-c1ccc(CN2CCOCC2)cc1 [Luminespib] (partner 0.01 µM)
How it was run: (§1)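 Relative viability was taken as the ratio of nuclei in treated wells to nuclei in vehicle wells. Lung cancer cell lines in 1536-well plates received compounds by pin tool one day after seeding, either one drug alone or a fixed anchor-drug dose plus five library-drug doses (not always all listed) in √10 steps. Nuclei were counted on 4× images after 5 days of treatment, and values are medians of duplicate plates.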

DM3189 + Linsitinib = compound: C1CN(CCN1)C2=CC=C(C=C2)C3=CN4C(=C(C=N4)C5=CC=NC6=CC=CC=C56)N=C3 [DM3189] + C[C@]1(O)C[C@@H](c2nc(-c3ccc4ccc(-c5ccccc5)nc4c3)c3c(N)nccn32)C1 [Linsitinib] (partner 1 µM)
How it was run: as §1

DM3189 + Pictilisib = compound: C1CN(CCN1)C2=CC=C(C=C2)C3=CN4C(=C(C=N4)C5=CC=NC6=CC=CC=C56)N=C3 [DM3189] + CS(=O)(=O)N1CCN(Cc2cc3nc(-c4cccc5[nH]ncc45)nc(N4CCOCC4)c3s2)CC1 [Pictilisib] (partner 1 µM)
How it was run: as §1

DM3189 + Crizotinib = compound: C1CN(CCN1)C2=CC=C(C=C2)C3=CN4C(=C(C=N4)C5=CC=NC6=CC=CC=C56)N=C3 [DM3189] + C[C@@H](Oc1cc(-c2cnn(C3CCNCC3)c2)cnc1N)c1c(Cl)ccc(F)c1Cl [Crizotinib] (partner 1 µM)
How it was run: as §1

DM3189 + Phenformin = compound: C1CN(CCN1)C2=CC=C(C=C2)C3=CN4C(=C(C=N4)C5=CC=NC6=CC=CC=C56)N=C3 [DM3189] + N=C(N)NC(=N)NCCc1ccccc1 [Phenformin] (partner 250 µM)
How it was run: as §1

Cell Line | relative viability (DM3189 + Luminespib; first compound 0.08 µM) | relative viability (DM3189 + Luminespib; first compound 0.253 µM) | relative viability (DM3189 + Luminespib; first compound 0.8 µM) | relative viability (DM3189 + Luminespib; first compound 2.53 µM) | relative viability (DM3189 + Linsitinib; first compound 0.08 µM) | relative viability (DM3189 + Linsitinib; first compound 0.253 µM) | relative viability (DM3189 + Linsitinib; first compound 0.8 µM) | relative viability (DM3189 + Linsitinib; first compound 2.53 µM) | relative viability (DM3189 + Pictilisib; first compound 0.08 µM) | relative viability (DM3189 + Pictilisib; first compound 0.253 µM) | relative viability (DM3189 + Pictilisib; first compound 0.8 µM) | relative viability (DM3189 + Pictilisib; first compound 2.53 µM) | relative viability (DM3189 + Crizotinib; first compound 0.08 µM) | relative viability (DM3189 + Crizotinib; first compound 0.253 µM) | relative viability (DM3189 + Crizotinib; first compound 0.8 µM) | relative viability (DM3189 + Crizotinib; first compound 2.53 µM) | relative viability (DM3189 + Phenformin; first compound 0.08 µM) | relative viability (DM3189 + Phenformin; first compound 0.253 µM) | relative viability (DM3189 + Phenformin; first compound 0.8 µM) | relative viability (DM3189 + Phenformin; first compound 2.53 µM)
NCI-H520 | 0.238 | 0.228 | 0.214 | 0.214 | 0.995 | 0.863 | 0.706 | 0.554 | 0.28 | 0.234 | 0.219 | 0.19 | 0.752 | 0.748 | 0.485 | 0.303 | 0.577 | 0.309 | 0.324 | 0.366
NCI-H2009 | 1.06 | 1.01 | 0.932 | 1.06 | 1.24 | 1.21 | 1.11 | 1.29 | 1 | 0.725 | 0.572 | 0.75 | 1.07 | 1.03 | 0.933 | 0.922 | 0.526 | 0.471 | 0.438 | 0.445
ChaGo-K-1 | 0.643 | 0.52 | 0.492 | 0.676 | – | – | – | – | 0.756 | 0.67 | 0.808 | 0.584 | 1.03 | 1.1 | 0.97 | 1.09 | 0.53 | 0.467 | 0.455 | 0.432
HCC-15 | 0.355 | 0.399 | 0.391 | 0.369 | 0.873 | 0.821 | 0.857 | 0.715 | 0.764 | 0.695 | 0.584 | 0.661 | 0.883 | 0.763 | 0.824 | 0.685 | 0.555 | 0.437 | 0.41 | 0.435
NCI-H2347 | 0.671 | 0.504 | 0.565 | 0.485 | 0.98 | 1 | 0.907 | 0.97 | 0.493 | 0.452 | 0.569 | 0.517 | 0.692 | 0.761 | 0.67 | 0.675 | 0.399 | 0.45 | 0.53 | 0.434
NCI-H1395 | 0.662 | 0.589 | 0.492 | 0.646 | 0.979 | 1.05 | 0.695 | 1.03 | 0.625 | 0.618 | 0.459 | 0.562 | – | – | – | – | 0.465 | 0.431 | 0.456 | 0.442
NCI-H1666 | 1.15 | 0.983 | 1.05 | 1.07 | 0.861 | 0.808 | 0.842 | 1.04 | 0.439 | 0.595 | 0.508 | 0.437 | 1.07 | 1.01 | 0.965 | 0.8 | 0.629 | 0.545 | 0.549 | 0.592
NCI-H3122 | 0.0997 | 0.103 | 0.072 | 0.0922 | 0.939 | 0.907 | 0.876 | 0.933 | 0.568 | 0.466 | 0.601 | 0.502 | 0.237 | 0.204 | 0.261 | 0.259 | 0.405 | 0.334 | 0.355 | 0.333
